Assay [1] deals with arrestin-1 mutants I72B and F197NBD with nonphosphorylated light-activated rhodopsin in ROS membranes. The assay is described as follows: Ternary complex formation (site-directed fluorescence and centrifugal pull-down). As to conditions: 10 µM rhodopsin in ROS, 1 µM arrestin-1 I72B or F197NBD, 100 µM peptide, pH 7. The class given is biochemical, bovine. An excerpt:
Recombinant bovine arrestin-1 cloned into the pET15b vector was expressed and purified as described. The basic construct was a modified wild-type sequence that contained no native cysteines (C63A, C128S and C143A) nor tryptophans (W194F). Single cysteine residues were introduced by PCR at sites 72 or 197 as previously described. The I72C mutant was labeled with monobromobimane (Thermo Fisher) and is referred to as I72B. The F197C mutant was labeled with N,N′-Dimethyl-N-(Iodoacetyl)-N′-(7-Nitrobenz-2-Oxa-1,3-Diazol-4-yl)Ethylenediamine (IANBD amide, Thermo Fisher) and is referred to as F197NBD. Labeling was carried out as previously described[43],[61]. Both labeled mutants were assessed to be functionally similar to wild-type arrestin-1 using the Extra Meta II assay, which determines the ability of arrestin-1 to bind and stabilize the active Meta II form of rhodopsin[64].
Under dim-red light, samples were prepared that contained nonphosphorylated rhodopsin (10 µM) in ROS membranes, 1 µM arrestin-1 I72B or F197NBD, ±100 µM peptide in 50 mM HEPES, 130 mM NaCl, pH 7 (150 or 200 µl sample volume). One hundred microliters of the sample was used for fluorescence measurements, and the remainder was used for the centrifugal pull-down assay (50 µl per assay). Steady-state fluorescence measurements were performed using a SPEX Fluorolog (1680) instrument in front-face mode. Bimane fluorescence was recorded using an excitation wavelength of 400 nm and emission 424–600 nm, and NBD fluorescence was recorded using an excitation wavelength of 500 nm and emission 524–660 (2 nm step size, 0.5 s integration per point). Excitation slits were narrowed to 0.1−0.2 nm to minimize light-activation of rhodopsin, and emission slits were set at 4 nm. Pull-down analysis was performed by centrifuging samples at 16,000 × g for 10 min at 20 °C. Selected samples were light activated (>495 nm) for 15 s prior to centrifugation (appr. 60 s delay time). Following centrifugation, the supernatants were removed, and the pellets were solubilized in loading buffer containing 2% SDS and subjected to SDS PAGE. Bands were visualized using Coomassie Brilliant Blue.

The target of assay [2] is T1, arrestin-1 (monomerizing mutant F85A, F197A) (Bos taurus, UniProt P08168, F197A/F85A).
T1 construct: made in house; host or cells: E. coli NiCo (DE3) cells (New England Biolabs), pET-15b vector
T1 sequence (P08168 whole entry F85A/F197A): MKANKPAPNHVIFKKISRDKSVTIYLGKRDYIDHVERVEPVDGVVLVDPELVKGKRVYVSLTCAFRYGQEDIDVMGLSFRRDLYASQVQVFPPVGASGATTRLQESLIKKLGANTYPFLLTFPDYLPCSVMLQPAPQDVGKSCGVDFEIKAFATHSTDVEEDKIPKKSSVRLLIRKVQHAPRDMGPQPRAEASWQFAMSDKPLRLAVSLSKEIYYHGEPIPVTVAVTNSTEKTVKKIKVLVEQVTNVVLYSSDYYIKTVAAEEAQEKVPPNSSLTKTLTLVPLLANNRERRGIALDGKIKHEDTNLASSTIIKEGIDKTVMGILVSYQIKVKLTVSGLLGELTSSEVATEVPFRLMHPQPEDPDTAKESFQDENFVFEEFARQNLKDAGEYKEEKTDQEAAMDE
Nature of the assay: Fluorescence anisotropy binding of fluorescein-labelled peptides to arrestin-1. Further details: species or system bovine. An excerpt:
(§1) Synthesized cDNAs of bovine arrestin-1, human arrestin-2 and human arrestin-3 were ordered from Genewiz, amplified by PCR and cloned (Supplementary Information Table 5) into the pET-15b vector (Novagen), using the Gibson Assembly protocol. The constructs contained an N-terminal hexa histidine tag linked by a linker that contained a Tobacco Etch Virus cleavage site (TEV; […]). PCR was used to introduce the monomerizing arrestin-1 mutations (F85A, F197A)[58]. Note that this mutant was employed for fluorescence anisotropy, trypsin digestion, and NMR experiments. Wild-type arrestin-2 and -3 were used for fluorescence anisotropy and trypsin digestion experiments. […] The arrestin-1 in this construct had the wild-type sequence. Note that this construct differs slightly from that previously published[59],[60] and was optimized for purification. We verified the functionality of this fusion construct using the standard centrifugal pull-down assay using phosphorylated rhodopsin in native ROS membranes.
0.1–0.2 mg of lyophilized peptide was dissolved in 50 µl of 50 mM phosphate-buffered saline (PBS) buffer at pH 7.0, and then two molar equivalents of fluorescein-5-maleimide dye stock dissolved in dimethylsulfoxid was added. The reaction was carried out at RT in the dark. After 1 h the reaction was topped up with 1 ml of ice-cold 100% acetone and stored until the next day at −20 °C. The precipitated peptide was centrifuged (13,000 × g) for 10 min. The labeled and precipitated peptide was sedimented, and the supernatant was removed. The peptide was resuspended again in ice-cold acetone, stored for 1 h at −20 °C and centrifuged (13,000 × g) for 10 min. […] The precipitated peptide was dried at RT in the dark. It was dissolved in 50 µl of 20 mM Bis-Tris propane pH 7.0 and 150 mM NaCl and its concentration was determined by absorbance. A molar extinction coefficient of 70,000/M/cm at pH 7.0 was assumed for calculating the concentration of the labeled peptide stock.
An 11-step serial dilution series of arrestin in 20 mM Bis-Tris propane pH 7.0, 150 mM NaCl, 8 mM 2‑mercaptoethanol, 2% (w/w) BSA, 0.02% (v/v) Tween-20 was prepared and transferred to a black high-bottom 384-well plate (Greiner). As control for free peptide, a position with only buffer was included. The peptide was added at a final concentration of 20 nM to each well. The plate was closed by a clear cover and vortexed for 15 s. Afterwards it was centrifuged (800 × g) for 2 min and stored at RT for 20 min. The reading was performed by default settings of PHERAstar plate-reader (BMG Labtech) and excitation‑/emission-wavelengths of 485 nm (12 nm bandpass)/520 nm (30 nm bandpass) were used. The analysis was performed using Origin2016 (Microcal Inc) software by fitting the data to a one-to-one binding model:2 r=R0+△R*P/Kd+P, where r stands for anisotropy, R0 stands for anisotropy of the ligand, ΔR stands for anisotropy of the complex minus anisotropy of the ligand, P stands for the concentration of protein, and Kd stands for the dissociation constant of the ligand.

A further assay has as its system arrestin-2. The assay is described as follows: Fluorescence anisotropy binding of fluorescein-labelled peptides to arrestin-2. Also on record: species or system human.
Description: as §1
0.1–0.2 mg of lyophilized peptide was dissolved in 50 µl of 50 mM phosphate-buffered saline (PBS) buffer at pH 7.0, and then two molar equivalents of fluorescein-5-maleimide dye stock dissolved in dimethylsulfoxid was added. The reaction was carried out at RT in the dark. […] It was dissolved in 50 µl of 20 mM Bis-Tris propane pH 7.0 and 150 mM NaCl and its concentration was determined by absorbance. […]
(In general: Polarisation of emitted light reports the rotation of a fluorescent probe.)

Another assay deals with arrestin-1 (F85A, F197A). Nature of the assay: Limited trypsin digestion of arrestin-1 in presence of peptide. The class given is biochemical, bovine. Conditions: arrestin:peptide 1:1.2, 35 °C, SDS PAGE.
Description: as §1
Arrestin (60 µg) was mixed at a 1 to 1.2 molar ratio with peptide and preincubated at RT for 5 min before 1 μl of 0.15 mg/ml trypsin stock was added. The enzymatic digestion was carried out at 35 °C (20 mM Bis-Tris propane pH 7.0, 150 mM NaCl, 10 mM 2‑Mercaptoethanol and 2 mM EDTA). At certain time points (5, 15, 30, 60, 90 min), 5 μl aliquots were quenched with heat incubation in the presence of 20 μl SDS loading buffer (95 °C, 5 min) and then subjected to SDS PAGE. Bands were visualized with InstantBlue (Expedeon).

The target in assay [3] is T2, bovine arrestin-1 with the monomerizing mutations F85A, F197A (bovine, UniProt P08168 2-404, F85A | F197A).
T2 construct: arrestin-1, bovine, synthesized cDNA in pET-15b; monomerizing mutations F85A, F197A; Used for fluorescence anisotropy, trypsin digestion and NMR (2H,15N,13C-labelled for NMR); residues of the linker may remain after cleavage (surmised); source: E. coli NiCo (DE3), purified (Ni-NTA, TEV, SQ column); not shown: His6, N-terminal, cleaved
T2 sequence (P08168 2-404 F85A/F197A): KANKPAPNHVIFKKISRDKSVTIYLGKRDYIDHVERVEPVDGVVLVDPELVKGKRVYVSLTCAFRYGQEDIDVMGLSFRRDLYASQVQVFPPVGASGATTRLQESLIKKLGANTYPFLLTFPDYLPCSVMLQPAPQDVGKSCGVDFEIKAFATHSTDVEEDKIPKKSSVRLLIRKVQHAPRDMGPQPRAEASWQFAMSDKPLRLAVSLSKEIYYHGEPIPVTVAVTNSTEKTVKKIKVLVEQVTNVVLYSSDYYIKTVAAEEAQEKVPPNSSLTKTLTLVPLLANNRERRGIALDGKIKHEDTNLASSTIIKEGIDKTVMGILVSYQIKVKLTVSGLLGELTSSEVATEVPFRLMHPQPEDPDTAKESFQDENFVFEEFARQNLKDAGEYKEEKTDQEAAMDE
The assay is described as follows: fluorescence polarisation; fluorescence anisotropy; 20 nM fluorescently labelled peptide, 11-step serial dilution of arrestin; 20 mM Bis-Tris propane pH 7.0, 150 mM NaCl, 8 mM 2-mercaptoethanol, 2% BSA, 0.02% Tween-20; RT; one-to-one binding model. Conditions: both partners purified.

Non-standard residues stand in square brackets, D forms with d. No end group written: not given here. pS = N[C@@H](COP(=O)(O)O)C(=O)O A value given as a limit tells only on which side of the number the result lay.

With “CDDEASTTVSKTETSQVAPA [3Pg, tri-phosphorylated rhodopsin C-terminus peptide lacking one key site, containing pT335 and pS338]”, the “ternary complex formation (arrestin-1, nonphosphorylated rhodopsin, peptide)” value (“ternary complex formation” for short) in assay [1] is reported as “moderate ternary complex formation”. The “binding to arrestin-1 (in words)” value in assay [2] is “significant loss of affinity”.
With “CDDEASTTVSKTETSQVAPA [3Ph, tri-phosphorylated rhodopsin C-terminus peptide lacking one or both key sites]”, the “ternary complex formation” value in assay [1] was “very little arrestin binding”. Further, the “binding to arrestin-1 (in words)” value in assay [2] is on record as “significant loss of affinity”.
In the case of CDDEASTTVSKTETSQVAPA [3Pf], in assay [1], the “ternary complex formation” value was “less ternary complex formation”. Moreover, the “binding to arrestin-1 (in words)” value in assay [2] is reported as “significant loss of arrestin-1 affinity”. Also, the “binding to arrestin-2 (in words)” value in the assay on arrestin-2 is on record as “bound well”. The “limited trypsin digest pattern of arrestin-1 (conformational change, C-tail displacement)” value with arrestin-1 (F85A, F197A) is reported as “notable exception”.
On to “CDDEASTTVSKTETSQVAPA [3Pk, tri-phosphorylated rhodopsin C-terminus peptide lacking one or both key sites]”, for which, in assay [1], the “ternary complex formation” value is reported as “very little arrestin binding”. Moreover, in assay [2], the “binding to arrestin-1 (in words)” value is “significant loss of affinity”.
Taken in the same sequence, the figures for “CDDEASTTVSKTETSQVAPA [3Pj, tri-phosphorylated rhodopsin C-terminus peptide lacking one or both key sites]” were “very little arrestin binding” and “significant loss of affinity”.
With “CDDEASTTVSKTETSQVAPA [3Pe, tri-phosphorylated rhodopsin C-terminus peptide lacking one or both key sites]”, the “ternary complex formation” value in assay [1] was “very little arrestin binding”. Further, the “binding to arrestin-1 (in words)” value in assay [2] was “significant loss of affinity”.
On to “CDDEASTTVSKTETSQVAPA [3Pi, tri-phosphorylated rhodopsin C-terminus peptide lacking one key site, containing pT335 and pS338]”, for which the “ternary complex formation” value in assay [1] was “moderate ternary complex formation”. The “binding to arrestin-1 (in words)” value in assay [2] is listed as “significant loss of affinity”.

B1: phosphopeptide 4P of the bovine rhodopsin C-terminus (peptide)
chain: C(fluorescein‑5‑maleimide)DDEASTTVSKTET[pS]QVAPA
modifications: not fully specified (residue 12); also: two further phospho-Ser/Thr sites not placed
The molecule B1 displayed a Kd in assay [3] of under 250 µM.

B2: phosphopeptide 6P of the bovine rhodopsin C-terminus (peptide)
chain: C(fluorescein‑5‑maleimide)DDEASTTVSKTET[pS]QVAPA
modifications: not fully specified (residue 12); also: four further phospho-Ser/Thr sites not placed
In assay [3], B2 had a Kd of under 250 µM.
On to C(fluorescein‑5‑maleimide)DDEASTTVSKTET[pS]QVAPA (not fully specified (residue 12); also: third phospho-Ser/Thr site not placed) [tri-phosphorylated peptide 3Pb of the bovine rhodopsin C-terminus], for which the Kd in assay [3] is under 250 µM.
On the same count and under the same terms, as for C(fluorescein‑5‑maleimide)DDEASTTVSKTET[pS]QVAPA (not fully specified (residue 12); also: third phospho-Ser/Thr site not placed) [tri-phosphorylated peptide 3Pd of the bovine rhodopsin C-terminus], the figure is under 250 µM; as for C(fluorescein‑5‑maleimide)DDEASTTVSKTET[pS]QVAPA (not fully specified (residue 12); also: third phospho-Ser/Thr site not placed) [tri-phosphorylated peptide 3Pc of the bovine rhodopsin C-terminus], under 250 µM.
On to C(fluorescein‑5‑maleimide)DDEASTTVSKTET[pS]QVAPA (not fully specified (residue 12); also: third phospho-Ser/Thr site not placed) [tri-phosphorylated peptide 3Pa of the bovine rhodopsin C-terminus], for which the Kd in assay [3] is under 250 µM.

The Kd is the equilibrium constant for the complex coming apart.
